Reference: patent US20090274739A1, “METHODS AND COMPOSITIONS FOR TREATING NEOINTIMAL HYPERPLASIA” (THE TRUSTEES OF COLUMBIA UNIVERSITY IN THE CITY OF NEW YORK, priority 2006, published 2009)

Assays:
Akt phosphorylation = assay: Immunoblot of Akt phosphorylation in VSMC; assay type: cell-based, mouse
Description: Western blot analysis: The cells were plated in a 100-mm culture dish in DMEM supplemented with 20% FBS for 24 h at 37° C., followed by serum starvation for 48 h. Cells were then treated with different reagents for 30 min. Cells were subsequently lysed on ice for 30 min in RIPA buffer [150 mM NaCl, 100 mM Tris (pH 8.0), 1% Triton X-100, 1% deoxycholic acid, 0.1% SDS, 5 mM EDTA, and 10 mM NaF] supplemented with 1 mM sodium vanadate, 2 mM leupeptin, 2 mM aprotinin, 1 mM phenylmethylsulfonyl fluoride (PMSF), 1 mM DTT, and 2 mM pepstatin A. After centrifugation at 14,000 rpm for 30 min, the supernatant was harvested as the total cellular protein extract, and stored at −70° C. The protein concentration was determined using Bio-Rad protein assay reagent (Richmond, Calif.). The total cellular protein extracts were separated by SDS-polyacrylamide gel electrophoresis (SDS-PAGE) and transferred to nitrocellulose membrane in 20 mM Tris-HCl (pH 8.0) containing 150 mM glycine and 20% (v/v) methanol.
Membranes were blocked with 5% nonfat dried milk in PBS containing 0.05% Tween 20 and incubated with antibodies against phospho-(Thr^202/Tyr^204) p42/p44^MAPK and p42/p44^MAPK, phospho-Akt([…]) and anti-Akt, p70^S6K, 4EBP-1. Blots were washed three times in PBS buffer, followed by incubation with the appropriate HRP-linked IgG. The specific proteins in the blots were visualized using an enhanced chemiluminescence reagent (NEN, Boston, Mass.).
VSMC were plated on 100-mm dishes, serum starved for 72 h in DMEM containing 0.1% FBS, and stimulated with 0.6 or 6 nM (10 or 100 ng/ml) leptin. Extracts were prepared by brief sonication in HKM buffer [40 mM HEPES-KOH (pH 7.6), 7.5 mM MgCl2, 0.5 mM DTT] or, in the case of Akt phosphorylation studies, by lysing cells on ice for 30 min in RIPA buffer. 70 μg of protein per sample were subjected to immunoblotting by standards protocols. Imaging and densitometry were performed on an Odyssey infrared system (Li-Cor, Lincoln, Neb.).

[1] = mouse, in vivo
Source text: Animal Models and Drug Treatments. Wild type C57BL/6J background mice and mice deficient for leptin (C57BL/6J-Lepob; ob/ob) or the leptin receptor (C57BL/6J-m+/+Lepdb; db/db) were purchased from Charles Jackson Laboratories, Maine. Mice were obtained at ages 6-8 weeks old and average weight 15 g. Animals were fed standard rodent chow and tap water ad libitum. Procedures and animal care were approved by the Institutional Animal Care and Use Committee. Mice were subjected to femoral artery wire injury or sham injury described below 24 hr prior to starting pharmacological treatments. Sirolimus was administered by intraperitoneal injection once per day for 14 days as a suspension in 0.2% sodium carboxymethyl cellulose and 0.25% polysorbate-80; duplicate experiments were accomplished with 0.5% DMSO. […] Plasma leptin levels were measured at baseline, 3, 6, and 10 hr after leptin injection using an ELISA assay (R&D). […]
For leptin measurements, plasma was obtained by drawing 100 μL of retro-orbital whole blood into a heparinized tube and removing cells by centrifugation at 20,000 m/s^2 for 5 min. Plasma leptin levels were measured at baseline, 3, 6, and 10 h after leptin injection in WT mice or at baseline in ob/ob and db/db mice using the mouse leptin TiterZyme EIA kit (Assay Designs, Ann Arbor, Mich.).

Leptin: recombinant leptin; hormone derived from adipose tissue, encoded by the Ob gene
phosphorylation of Akt (on serine 473) (Akt phosphorylation; Example 1, leptin 10 ng/mL): stimulated the phosphorylation
time of maximum Akt phosphorylation (Akt phosphorylation; Example 2, leptin 100 ng/ml, decreasing thereafter at 45 min): 10 min
Thr-308 phosphorylation of Akt (Akt phosphorylation; Example 5, leptin 6 nM): stimulated
phosphorylation of Ser-473 of Akt (Akt phosphorylation; Example 5, leptin 6 nM): stimulated the phosphorylation
leptin level 3 h after injection relative to untreated WT mice [1]: ~20 times
leptin level 3 hr after injection relative to untreated WT mice [1]: 15 times
